Results: US20220104492A1, “PYRIDAZINIUM COMPOUNDS FOR USE IN A METHOD OF CONTROLLING UNWANTED PLANT GROWTH” (SYNGENTA CROP PROTECTION AG, priority 2019, published 2022)
Read-outs that look alike come from different tables or passages of the source.

Tests used:
Test in all cases: Post-emergence efficacy (glasshouse, spray application)
Assay type in all cases: in vivo
[1] = system: Digitaria sanguinalis (DIGSA); conditions: 312 h, read-out: Control of weed species after post-emergence application, DIGSA
Procedure: (§1) Seeds of a variety of test species were sown in standard soil in pots. After cultivation for 14 days (post-emergence) under controlled conditions in a glasshouse (at 24/16° C., day/night; 14 hours light; 65 humidity), the plants were sprayed with an aqueous spray solution derived from the dissolution of the technical active ingredient formula (I) in a small amount of acetone and a special solvent and emulsifier mixture referred to as IF50 (11.12% Emulsogen EL360 TM+44.44% N-methylpyrrolidone+44.44% Dowanol DPM glycol ether), to create a 50 g/l solution which was then diluted to required concentration using a solution of 0.25% or 1% Empicol ESC70 (Sodium lauryl ether sulphate)+1% ammonium sulphate in water as diluent.
(§2) The test plants were then grown in a glasshouse under controlled conditions (at 24/16° C., day/night; 14 hours light; 65% humidity) and watered twice daily. After 13 days the test was evaluated (100=total damage to plant; 0=no damage to plant).
(§3) Ipomoea hederacea (IPOHE), Euphorbia heterophylla (EPHHL), Chenopodium album (CHEAL), Amaranthus palmeri (AMAPA), Lolium perenne (LOLPE), Digitaria sanguinalis (DIGSA), Eleusine indica (ELEIN), Echinochloa crus-galli (ECHCG), Setaria faberi (SETFA)

Eleusine indica (ELEIN) = conditions: 312 h, read-out: Control of weed species after post-emergence application, ELEIN
Procedure: as §1, §2, §3

Setaria faberi (SETFA) = conditions: 312 h, read-out: Control of weed species after post-emergence application, SETFA
Procedure: as §1, §2, §3

[2] = system: Ipomoea hederacea (IPOHE); conditions: 312 h, read-out: Control of weed species after post-emergence application, IPOHE
Procedure: as §1, §2, §3

Lolium perenne (LOLPE) = conditions: 312 h, read-out: Control of weed species after post-emergence application, LOLPE
Procedure: as §1, §2, §3

[3] = system: Amaranthus palmeri (AMAPA); conditions: 312 h, read-out: Control of weed species after post-emergence application, AMAPA
Procedure: as §1, §2, §3

[4] = system: Echinochloa crus-galli (ECHCG); conditions: 312 h, read-out: Control of weed species after post-emergence application, ECHCG
Procedure: as §1, §2, §3

[5] = system: Chenopodium album (CHEAL); conditions: 312 h, read-out: Control of weed species after post-emergence application, CHEAL
Procedure: as §1, §2, §3

[6] = system: Euphorbia heterophylla (EPHHL); conditions: 312 h, read-out: Control of weed species after post-emergence application, EPHHL
Procedure: as §1, §2, §3

[7] = Application rate 500 g/Ha, evaluated after 13 days, 100=total damage to plant, 0=no damage to plant

| Structure (SMILES) | pest or weed control at 500 g/ha [1] | pest or weed control at 500 g/ha (Eleusine indica (ELEIN)) | pest or weed control at 500 g/ha (Setaria faberi (SETFA)) | pest or weed control at 500 g/ha [2] | pest or weed control at 500 g/ha (Lolium perenne (LOLPE)) | pest or weed control at 500 g/ha [3] | pest or weed control at 500 g/ha [4] | pest or weed control at 500 g/ha [5] | pest or weed control at 500 g/ha [6] | pest or weed control at 500 g/ha [1, 7] | pest or weed control at 500 g/ha (Eleusine indica (ELEIN); [7]) | pest or weed control at 500 g/ha (Setaria faberi (SETFA); [7]) | pest or weed control at 500 g/ha [2, 7] | pest or weed control at 500 g/ha (Lolium perenne (LOLPE); [7]) | pest or weed control at 500 g/ha [3, 7] | pest or weed control at 500 g/ha [4, 7] | pest or weed control at 500 g/ha [5, 7] | pest or weed control at 500 g/ha [6, 7] |
| --- | --- | --- | --- | --- | --- | --- | --- | --- | --- | --- | --- | --- | --- | --- | --- | --- | --- | --- |
| O=C(O)CNC(=O)C[n+]1ccc(-c2ncccn2)cn1 [Compound A1, 2-[[2-(4-pyrimidin-2-ylpyridazin-1-ium-1-yl)acetyl]amino]acetic acid 2,2,2-trifluoroacetate] | 90% | 90% | 60% | 100% | 70% | 100% | 70% | 100% | 90% | – | – | – | – | – | – | – | – | – |
| CCC(NC(=O)C[n+]1ccc(-c2ncccn2)cn1)C(=O)O (stereo not shown) [Compound A2] | – | – | – | – | – | – | – | – | – | 80% | 70% | 40% | 100% | 40% | 100% | 90% | 90% | 100% |
| CCCC(NC(=O)C[n+]1ccc(-c2ncccn2)cn1)C(=O)O (stereo not shown) [Compound A3] | – | – | – | – | – | – | – | – | – | 90% | 100% | 70% | 70% | 50% | 100% | 90% | 100% | 100% |
| O=C(O)COCC[n+]1ccc(-c2ncccn2)cn1 [Compound A4] | – | – | – | – | – | – | – | – | – | 90% | 100% | 100% | 90% | 80% | 100% | 90% | 100% | 100% |
| CCC(C)C(NC(=O)C[n+]1ccc(-c2ncccn2)cn1)C(=O)O (stereo not shown) [Compound A5] | – | – | – | – | – | – | – | – | – | 10% | 10% | 10% | 60% | 0% | 100% | 30% | 100% | 100% |
| CC(C)CC(NC(=O)C[n+]1ccc(-c2ncccn2)cn1)C(=O)O (stereo not shown) [Compound A6] | – | – | – | – | – | – | – | – | – | 50% | 90% | 50% | 90% | 40% | 100% | 70% | 100% | 100% |
| NC(=O)CC(NC(=O)C[n+]1ccc(-c2ncccn2)cn1)C(=O)O (stereo not shown) [Compound A7] | – | – | – | – | – | – | – | – | – | 40% | 30% | 40% | 0% | 0% | 10% | 30% | 60% | 30% |
| CN(CC(=O)O)C(=O)C[n+]1ccc(-c2ncccn2)cn1 [Compound A8, 2-[methyl-[2-(4-pyrimidin-2-ylpyridazin-1-ium-1-yl)acetyl]amino]acetic acid 2,2,2-trifluoroacetate] | – | – | – | – | – | – | – | – | – | 70% | 90% | 70% | 60% | 40% | 100% | 80% | 100% | 100% |
| O=C(O)CCC(=O)C[n+]1ccc(-c2ncccn2)cn1 [Compound A9, 4-oxo-5-(4-pyrimidin-2-ylpyridazin-1-ium-1-yl)pentanoic acid chloride] | – | – | – | – | – | – | – | – | – | 50% | 70% | 30% | 40% | 0% | 70% | 70% | 70% | 70% |
| O=C(O)CNC(=O)CNC(=O)C[n+]1ccc(-c2ncccn2)cn1 [Compound A10] | – | – | – | – | – | – | – | – | – | 80% | 90% | 80% | 40% | 40% | 90% | 70% | 60% | 90% |
| O=C(C[n+]1ccc(-c2ncccn2)cn1)NC(Cc1ccccc1)C(=O)O (stereo not shown) [Compound A11] | – | – | – | – | – | – | – | – | – | 90% | 90% | 50% | 20% | 20% | 100% | 70% | 50% | 90% |
| CC(NC(=O)C[n+]1ccc(-c2ncccn2)cn1)C(=O)O (stereo not shown) [Compound A12] | – | – | – | – | – | – | – | – | – | 90% | 100% | 70% | 70% | 50% | 100% | 70% | 100% | 100% |
| O=C(C[n+]1ccc(-c2ncccn2)cn1)NC(C(=O)O)c1ccccc1 (stereo not shown) [Compound A13] | – | – | – | – | – | – | – | – | – | 100% | 90% | 70% | 40% | 30% | 100% | 80% | 50% | 50% |
| O=C(O)CNC(=O)CC[n+]1ccc(-c2ncccn2)cn1 [Compound A14] | – | – | – | – | – | – | – | – | – | 100% | 100% | 100% | 100% | 100% | 100% | 100% | 90% | 100% |
| OCCOCC[n+]1ccc(-c2ncccn2)cn1 [Compound A17, 2-[2-(4-pyrimidin-2-ylpyridazin-1-ium-1-yl)ethoxy]ethanol 2,2,2-trifluoroacetate] | – | – | – | – | – | – | – | – | – | – | 20% | 20% | 0% | 10% | 30% | 30% | 50% | 30% |
| O=C(O)CNS(=O)(=O)CC[n+]1ccc(-c2ncccn2)cn1 [Compound A29, 2-[2-(4-pyrimidin-2-ylpyridazin-1-ium-1-yl)ethylsulfonylamino]-acetic acid 2,2,2-trifluoroacetate] | – | – | – | – | – | – | – | – | – | – | 70% | 60% | 40% | 50% | 100% | 50% | 70% | 90% |
